# Results reported in article PMC9828538, “Antigiardial Activity of Novel Guanidine Compounds” (Chemmedchem, 2022).
# Entries after “also recorded” stand apart in the source; their conditions may differ. Where two headings read alike, the source gives them in different places.
# Experiments:
# [1] = test system: Giardia duodenalis trophozoites (BAH2c2 strain); experiment: Resazurin reduction assay on Giardia trophozoites in vitro; assay type: cell-based; details: for Selectivity ratio: higher ratios = more selective
# Excerpt: Biology Materials and Methods:
# Metronidazole was sourced from sigma.
# Chemicals used for the culture of Giardia in vitro were sourced as follows: glucose and L-cysteine (ACROS organics, Thermo Fisher Scientific, Scoresby, Vic), Ammonium Iron (III) citrate, ascorbic Acid (Sigma -aldrich, Castle Hill, NSW), potassium dihydrogen orthophosphate (UNIVAR, Ingleburn, NSW), bovine bi le (Fluka analytical (BD)), di-potassium hydrogen orthophosphate (Fronine laboratory supplies, Riverstone, NSW).
# G. duodenalis (BAH2c2 strain) was cultivated according to the method of Clark and Diamond in Keister’s modified TYI-S-33 medium, supplemented with heat inactivated foetal bovine serum (Hyclone™, Thermo Scientific, Scoresby, Vic) at 37°C in plastic 9 mL screw-capped test tubes (nunc). Subcultures were performed once a confluent monolayer was observed, approximately 2 – 3 times per week (Clark and Diamond, 2002).
# (§1) CaCo-2 cells, a human cell line derived from a primary colonic tumour, were sourced from Cellbank Australia and were maintained in MEM supplemented with 2 mM glutamine, 1% non-essential amino acids and 10% FCS (Thermo Scientific). Cells were passaged when confluent, approximately 1-2 times per week. Vero cells were also obtained from Cellbank Australia and maintained as above.
# In vitro drug efficacy assays
# Resazurin Reduction Assay […]
# tested to identify the IC50 and minimum lethal concentration (MLC). For all assays the media of confluent cultures was replaced with fresh media and the cultures were placed on ice for 40 minutes to detach trophozoites.
# Trophozoites were enumerated using a haemocytometer and 50 000 trophozoites were added to each test well of a 96 well plate. Either single concentrations (final concentration 25 μM) for the screening assay or tripling dilutions […]
# wells. The assays were repeated in triplicate with metronidazole and a DMSO (vehicle only) used as controls. Plates were incubated under anaerobic conditions (anaerogen sachet, Thermofisher scientific) for 5 or 24 hours at 37°C following which the viability of treated cells was determined using the resazurin reduction assay (Benere et al., 2007). The media was removed and replaced with an equal volume of warm PBS. Resazurin (Sigma) was then added at 10% of the total volume of the wells. Plates were further incubated for colour development and absorbance read at 570 nm and 630 nm. Resazurin reduction was calculated according to the following formula: […]
# (§2) CaCo-2 or Vero cells, maintained as outlined above, were collected via trypsinisation and enumerated using trypan blue and a haemocytometer. Select analogues were prepared in DMSO so that the final concentration in the assay was 25 μM. 1 X 10^5 cells/ml were added to each assay with the appropriate drug dilution. Assays were completed in 96 well plates and incubated for 24 hours at 37°C, 5% CO2 in a humidified incubator. After incubation cells were […]
# (§3) washed with warm PBS before the addition of 10% resazurin in PBS. Assays were incubated to allow colour development and absorbance read at 630 and 570nm. Activity of the analogues against mammalian cells was calculated according to the formula stated above.
# In vivo toxicity in mice = details: per os, 100 mg/kg per day for 3 days, 100 mg/kg/day
# Giardia duodenalis = experiment: Washout / growth recovery of Giardia after 5 h exposure; assay type: cell-based; details: 5 h treatment, 48 h post removal
# CaCo-2 cells = details: human, 24 h, 25 μM
# Protocol: Biology Materials and Methods: […]
# as §1
# In vitro drug efficacy assays […]
# 2007). The media was removed and replaced with an equal volume of warm PBS. Resazurin (Sigma) was then added at 10% of the total volume of the wells. Plates were further incubated for colour development and absorbance read at 570 nm and 630 nm. Resazurin reduction was calculated according to the following formula: […]
# as §2, §3
"IC50 ([1]; Giardia duodenalis, 24 h, read-out: Antigiardial activity IC50 (24 h)) [µM]","MIC ([1]; Giardia duodenalis, 24 h, minimum inhibitory concentration, read-out: Antigiardial activity MIC (24 h)) [µM]",SMILES,"IC50 ([1]; Giardia duodenalis, 5 h, read-out: Antigiardial activity IC50 (5 h)) [µM]",time to marked impact on Giardia trophozoites ([1]; data not shown) [h],"Selectivity ratio ([1]; toxicity tested at 25 μM vs 5 h IC50, Table 4)",Tolerability in mice (adverse effects) (In vivo toxicity in mice),Giardia regrowth after compound removal (Giardia duodenalis),"Selectivity ratio ([1]; toxicity tested at 25 μM vs 24 h IC50, Tables 1-3)",Toxicity (% growth control) (CaCo-2 cells) [%]
,,"COc1cc(Br)c(C=NNC(=N)NN=Cc2cc(OC)c(OC)cc2Br)cc1OC.Cl [Compound 41, 2,2′‐bis[(2‐bromo‐4,5‐dimethoxyphenyl)methylene]carbonimidic dihydrazide hydrochloride]",0.2,1 to 2,>125,well tolerated; also recorded: no adverse effects,no Giardia regrowth; also recorded: did not result in Giardia regrowth,,
0.9,2.8,"Cl.N=C(N/N=C/c1ccc(Cl)cc1)N/N=C/c1ccc(Cl)cc1 [Robenidine 4, robenidine, reference compound]",,,,,did not result in Giardia regrowth,>27.8,40.7±22.6
